# According to the NIST ThermoML archive (doi:10.1016/j.fluid.2018.07.027):
# ± gives the expanded uncertainty stated by the source.
# Tests used:
# [1] = refractive index (Na D-line) (dimensionless); conditions: 298.15 K; 101.33 kPa; Liquid; Standard Abbe refractometry
# [2] = 298.15 K, 101.33 kPa, Liquid; for speed of sound: Single path-length method; for mass density: Vibrating tube method
# [3] = Boiling temperature at pressure P; conditions: 101.3 kPa; Liquid; Ebulliometric method (Recirculating still)
# [4] = xn = mol fraction of the nth substance listed; conditions: 298.15 K, 101.3 kPa, Liquid; for speed of sound: Frequency=3 MHz, Single path-length method; for mass density: Vibrating tube method
# [5] = refractive index (Na D-line) (dimensionless); xn = mol fraction of the nth substance listed; conditions: 298.15 K, 101.3 kPa, Liquid, Standard Abbe refractometry
smiles,measurement,setting,value
"CC(C)CC(C)(C)C [2,2,4-trimethylpentane]",refractive index,[1],1.38898 ± 0.00033
same,speed of sound,[2],1082.8 ± 1.1 m/s
same,mass density,[2],687.824 ± 0.92 kg/m3
same,Boiling temperature at pressure P,[3],99.01 ± 0.05 °C
"CC(C)CC(C)(C)C [2,2,4-trimethylpentane] + CCCCO",speed of sound,[4]; x1 = 0.0518,1223.4 ± 1.2 m/s
same,speed of sound,[4]; x1 = 0.1022,1208.3 ± 1.2 m/s
same,speed of sound,[4]; x1 = 0.1512,1194.3 ± 1.1 m/s
same,speed of sound,[4]; x1 = 0.2028,1181.5 ± 1.1 m/s
same,speed of sound,[4]; x1 = 0.2535,1169.4 ± 1.1 m/s
same,speed of sound,[4]; x1 = 0.3042,1157.9 ± 1.1 m/s
same,speed of sound,[4]; x1 = 0.3535,1148.6 ± 1.1 m/s
same,speed of sound,[4]; x1 = 0.4049,1139.1 ± 1.1 m/s
same,speed of sound,[4]; x1 = 0.4534,1130.8 ± 1.1 m/s
same,speed of sound,[4]; x1 = 0.5032,1123.4 ± 1.1 m/s
same,speed of sound,[4]; x1 = 0.5534,1116.6 ± 1.1 m/s
same,speed of sound,[4]; x1 = 0.6041,1110.3 ± 1.1 m/s
same,speed of sound,[4]; x1 = 0.6558,1104.5 ± 1.1 m/s
same,speed of sound,[4]; x1 = 0.7046,1099.6 ± 1.1 m/s
same,speed of sound,[4]; x1 = 0.7521,1095.4 ± 1.1 m/s
same,speed of sound,[4]; x1 = 0.8047,1091.1 ± 1.1 m/s
same,speed of sound,[4]; x1 = 0.8521,1087.9 ± 1.1 m/s
same,speed of sound,[4]; x1 = 0.9005,1085.1 ± 1.1 m/s
same,speed of sound,[4]; x1 = 0.9502,1082.8 ± 1.1 m/s
same,speed of sound,[4]; x1 = 1,1082.8 ± 1.1 m/s
same,mass density,[4]; x1 = 0.0518,795.39 ± 0.93 kg/m3
same,mass density,[4]; x1 = 0.1022,785.94 ± 0.93 kg/m3
same,mass density,[4]; x1 = 0.1512,777.34 ± 0.93 kg/m3
same,mass density,[4]; x1 = 0.2028,768.9 ± 0.92 kg/m3
same,mass density,[4]; x1 = 0.2535,761.12 ± 0.92 kg/m3
same,mass density,[4]; x1 = 0.3042,753.81 ± 0.92 kg/m3
same,mass density,[4]; x1 = 0.3535,747.12 ± 0.92 kg/m3
same,mass density,[4]; x1 = 0.4049,740.56 ± 0.92 kg/m3
same,mass density,[4]; x1 = 0.4534,734.72 ± 0.92 kg/m3
same,mass density,[4]; x1 = 0.5032,729.09 ± 0.92 kg/m3
same,mass density,[4]; x1 = 0.5534,723.73 ± 0.92 kg/m3
same,mass density,[4]; x1 = 0.6041,718.63 ± 0.92 kg/m3
same,mass density,[4]; x1 = 0.6558,713.71 ± 0.92 kg/m3
same,mass density,[4]; x1 = 0.7046,709.35 ± 0.92 kg/m3
same,mass density,[4]; x1 = 0.7521,705.31 ± 0.92 kg/m3
same,mass density,[4]; x1 = 0.8047,701.05 ± 0.92 kg/m3
same,mass density,[4]; x1 = 0.8521,697.48 ± 0.92 kg/m3
same,mass density,[4]; x1 = 0.9005,694.03 ± 0.92 kg/m3
same,mass density,[4]; x1 = 0.9502,690.74 ± 0.92 kg/m3
same,mass density,[4]; x1 = 1,687.79 ± 0.91 kg/m3
same,refractive index,[5]; x1 = 0.0518,1.39663 ± 0.00033
same,refractive index,[5]; x1 = 0.1022,1.39603 ± 0.00033
same,refractive index,[5]; x1 = 0.1512,1.39545 ± 0.00033
same,refractive index,[5]; x1 = 0.2028,1.39484 ± 0.00033
same,refractive index,[5]; x1 = 0.2535,1.39426 ± 0.00033
same,refractive index,[5]; x1 = 0.3042,1.39372 ± 0.00033
same,refractive index,[5]; x1 = 0.3535,1.39318 ± 0.00033
same,refractive index,[5]; x1 = 0.4049,1.39266 ± 0.00033
same,refractive index,[5]; x1 = 0.4534,1.39218 ± 0.00033
same,refractive index,[5]; x1 = 0.5032,1.39173 ± 0.00033
same,refractive index,[5]; x1 = 0.5534,1.39128 ± 0.00033
same,refractive index,[5]; x1 = 0.6041,1.39088 ± 0.00033
same,refractive index,[5]; x1 = 0.6558,1.3905 ± 0.00033
same,refractive index,[5]; x1 = 0.7046,1.39016 ± 0.00033
same,refractive index,[5]; x1 = 0.7521,1.38988 ± 0.00033
same,refractive index,[5]; x1 = 0.8047,1.38958 ± 0.00033
same,refractive index,[5]; x1 = 0.8521,1.38934 ± 0.00033
same,refractive index,[5]; x1 = 0.9005,1.38914 ± 0.00033
same,refractive index,[5]; x1 = 0.9502,1.38897 ± 0.00033
same,refractive index,[5]; x1 = 1,1.38898 ± 0.00033
"CC(C)CC(C)(C)C [2,2,4-trimethylpentane] + CCCCOCCCC",speed of sound,[4]; x1 = 1,1082.6 ± 1.1 m/s
same,mass density,[4]; x1 = 1,687.71 ± 0.91 kg/m3
same,refractive index,[5]; x1 = 1,1.38898 ± 0.00033
CCCCO [butan-1-ol],refractive index,[1],1.39725 ± 0.00033
same,speed of sound,[2],1240.1 ± 1.1 m/s
same,mass density,[2],805.769 ± 0.91 kg/m3
CCCCO [butan-1-ol] + CC(C)CC(C)(C)C,speed of sound,[4]; x2 = 0,1240.1 ± 1.1 m/s
same,mass density,[4]; x2 = 0,805.78 ± 0.91 kg/m3
same,refractive index,[5]; x2 = 0,1.39725 ± 0.00033
